Reference: ChEMBL document CHEMBL3779775, “Synthesis, anti-inflammatory, analgesic, COX-1/2 inhibition activities and molecular docking study of pyrazoline derivatives” (Bioorg Med Chem, 2016)
Activity calls are given as the source filed them. The rule behind the calls is not given here.

Assays:
Rattus norvegicus [1] = assay: Antiinflammatory activity in ip dosed carrageenan induced Sprague-Dawley rat paw oedema model assessed as reduction of paw volume measured after 2 hrs by plethysmometer method; assay type: functional
Mus musculus [2] = assay: Analgesic activity in ip dosed albino Swiss mouse assessed as decrease in licking or blowing time administered as single dose measured after 1 hr by hot plate test; assay type: functional
Rattus norvegicus [3] = assay: Ulcerogenicity in ip dosed fasted Sprague-Dawley rat after 24 hrs by hand lens; assay type: toxicity, organism-based; settings: in vivo
Rattus norvegicus [4] = assay: Antiinflammatory activity in carrageenan induced Sprague-Dawley rat paw oedema model assessed as reduction of paw volume at 200 mg/kg, ip measured after 2 hrs by plethysmometer method; assay type: functional, organism-based
Mus musculus [5] = assay: Analgesic activity in albino Swiss mouse assessed as decrease in licking or blowing time at 200 mg/kg, ip administered as single dose measured after 1 hr by hot plate test; assay type: functional, organism-based
[6] = biological target: T1, Prostaglandin G/H synthase 1 (Ovis aries, UniProt P05979); assay: Inhibition of ovine COX-1 using arachidonic acid as substrate assessed as production of […] preincubated for 5 mins followed by addition of substrate measured after 2 mins by EIA
T1 sequence (P05979 whole entry): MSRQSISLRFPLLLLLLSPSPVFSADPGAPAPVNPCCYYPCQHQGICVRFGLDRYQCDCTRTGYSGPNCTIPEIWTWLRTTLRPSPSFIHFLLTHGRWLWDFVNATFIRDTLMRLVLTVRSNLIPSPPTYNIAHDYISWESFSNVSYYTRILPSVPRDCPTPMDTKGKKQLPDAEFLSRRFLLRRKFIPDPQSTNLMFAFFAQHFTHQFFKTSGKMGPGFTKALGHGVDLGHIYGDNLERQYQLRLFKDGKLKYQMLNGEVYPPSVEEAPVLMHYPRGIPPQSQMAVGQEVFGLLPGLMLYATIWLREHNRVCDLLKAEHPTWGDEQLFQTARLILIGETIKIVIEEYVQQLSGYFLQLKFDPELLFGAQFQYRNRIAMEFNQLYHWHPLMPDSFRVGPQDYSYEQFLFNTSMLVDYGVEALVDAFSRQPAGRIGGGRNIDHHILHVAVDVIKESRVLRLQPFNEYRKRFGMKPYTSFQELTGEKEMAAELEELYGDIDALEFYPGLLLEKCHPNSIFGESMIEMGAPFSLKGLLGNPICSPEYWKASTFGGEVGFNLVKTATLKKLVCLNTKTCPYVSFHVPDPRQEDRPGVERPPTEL

Row | SMILES | ED50 (Rattus norvegicus [1]) | ED50 (Mus musculus [2]) | Activity (Rattus norvegicus [3]) | Activity (Rattus norvegicus [4]) | Activity (Mus musculus [5]) | IC50 [6]
1 | O=C(CCl)N1N=C(c2ccc(F)cc2)CC1c1ccc([N+](=O)[O-])cc1 (stereo not drawn) | 98.4 mg/kg | 68.2 mg/kg | > 200 mg/kg | – | – | –
2 | Nc1ccc(C2=NNC(c3ccc([N+](=O)[O-])cc3)C2)cc1 (stereo not drawn) | – | – | – | inactive | inactive | –
3 | O=C(CCl)Nc1ccc(C2=NN(C(=O)CCl)C(c3ccc([N+](=O)[O-])cc3)C2)cc1 (stereo not drawn) | 90.3 mg/kg | 81.9 mg/kg | > 200 mg/kg | – | – | –
4 | O=C(CO[N+](=O)[O-])N1N=C(c2ccc(F)cc2)CC1c1ccc([N+](=O)[O-])cc1 (stereo not drawn) | 65.3 mg/kg | 55.1 mg/kg | > 200 mg/kg | – | – | > 100 µM
5 | CC(=O)c1ccc(NCC(=O)N2N=C(c3ccc(F)cc3)CC2c2ccc([N+](=O)[O-])cc2)cc1 (stereo not drawn) | 73.2 mg/kg | 49.4 mg/kg | > 200 mg/kg | – | – | > 100 µM
6 | CC(=O)Nc1ccc(C2=NN(C(C)=O)C(c3ccc([N+](=O)[O-])cc3)C2)cc1 (stereo not drawn) | – | 48.1 mg/kg | > 200 mg/kg | – | – | > 100 µM
7 | O=[N+]([O-])c1ccc(C2CC(c3ccc(F)cc3)=NN2)cc1 (stereo not drawn) | 89.7 mg/kg | 59.1 mg/kg | > 200 mg/kg | – | – | –
8 | CC(=O)Nc1ccc(C2=NN(c3ccccc3)C(c3ccc(Cl)cc3)C2)cc1 (stereo not drawn) | 74.2 mg/kg | 49.6 mg/kg | > 200 mg/kg | – | – | > 100 µM
9 | O=C(CO[N+](=O)[O-])N1N=C(c2ccc(Br)cc2)CC1c1ccc([N+](=O)[O-])cc1 (stereo not drawn) | – | – | – | inactive | inactive | –
10 | CC(=O)c1ccc(NCC(=O)N2N=C(c3ccc(Br)cc3)CC2c2ccc([N+](=O)[O-])cc2)cc1 (stereo not drawn) | 95.9 mg/kg | 87.8 mg/kg | > 200 mg/kg | – | – | –
11 | O=C(CCl)N1N=C(c2ccccc2)CC1c1ccc([N+](=O)[O-])cc1 (stereo not drawn) | – | – | – | inactive | inactive | –
12 | Cc1ccc(-c2cc(C(F)(F)F)nn2-c2ccc(S(N)(=O)=O)cc2)cc1 [CELECOXIB] | 89 mg/kg | 72 mg/kg | > 200 mg/kg | – | – | –
13 | O=C(CO[N+](=O)[O-])N1N=C(c2ccccc2)CC1c1ccc([N+](=O)[O-])cc1 (stereo not drawn) | – | – | – | inactive | inactive | –
14 | Nc1ccc(C2=NN(C(=O)CCl)C(c3ccc([N+](=O)[O-])cc3)C2)cc1 (stereo not drawn) | – | – | – | inactive | inactive | –
15 | O=C(CCl)N1N=C(c2ccc(Br)cc2)CC1c1ccc([N+](=O)[O-])cc1 (stereo not drawn) | – | – | – | inactive | inactive | –
16 | CC(=O)c1ccc(NCC(=O)N2N=C(c3ccccc3)CC2c2ccc([N+](=O)[O-])cc2)cc1 (stereo not drawn) | 59.4 mg/kg | 38.6 mg/kg | > 200 mg/kg | – | – | > 100 µM
17 | O=C(CO[N+](=O)[O-])N1N=C(c2ccc(Br)cc2)CC1c1ccc(Cl)cc1 (stereo not drawn) | – | – | – | inactive | inactive | –
18 | Fc1ccc(C2=NNC(c3ccc(Cl)cc3)C2)cc1 (stereo not drawn) | – | – | – | inactive | inactive | –
19 | CC(=O)Nc1ccc(C2=NN(c3ccccc3)C(c3ccc([N+](=O)[O-])cc3)C2)cc1 (stereo not drawn) | 91.3 mg/kg | 75.2 mg/kg | > 200 mg/kg | – | – | –
